Source: BindingDB's records for doi:10.7270/Q2W957N3 (Burnham Center For Chemical Genomics, 2010)

Molecular target: Alkaline phosphatase, placental type (Homo sapiens, UniProt P05187)
Test: inhibition of placental alkaline phosphatase – biochemical, uHTS hits, luminescence, selectivity assay for human IAP inhibitor project, dose response (AID 488892)

Chain of Alkaline phosphatase, placental type (P05187 whole entry, looked up): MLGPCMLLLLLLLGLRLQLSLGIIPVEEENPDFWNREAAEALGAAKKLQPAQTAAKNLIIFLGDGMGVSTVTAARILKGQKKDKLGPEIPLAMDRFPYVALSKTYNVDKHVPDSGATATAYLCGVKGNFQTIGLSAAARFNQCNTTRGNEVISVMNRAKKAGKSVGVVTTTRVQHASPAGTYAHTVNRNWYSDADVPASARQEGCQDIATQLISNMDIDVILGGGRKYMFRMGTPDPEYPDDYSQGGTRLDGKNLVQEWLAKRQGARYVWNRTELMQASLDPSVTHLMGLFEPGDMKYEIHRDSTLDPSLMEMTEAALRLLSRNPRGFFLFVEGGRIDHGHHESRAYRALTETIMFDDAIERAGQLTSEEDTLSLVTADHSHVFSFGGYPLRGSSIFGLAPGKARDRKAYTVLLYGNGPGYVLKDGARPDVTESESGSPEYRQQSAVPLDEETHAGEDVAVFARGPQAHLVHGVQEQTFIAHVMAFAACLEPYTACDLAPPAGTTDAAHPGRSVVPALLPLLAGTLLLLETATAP

IC50 [µM] | SMILES
35.1 | CCOC1=CC(=Cc2c(C)[nH]oc2=O)C=C(Br)C1=O [4-[(Z)-(3-bromo-5-ethoxy-4-oxo-1-cyclohexa-2,5-dienylidene)methyl]-3-methyl-2H-isoxazol-5-one]
> 100 | CC(N=Nc1ccccc1[N+](=O)[O-])c1ccc([N+](=O)[O-])cc1 (stereo not drawn)
37.8 | C=c1[nH]n(Cc2ccccc2)c(=O)c1=Cc1ccc(N(C)C)cc1 [(4Z)-4-[[4-(dimethylamino)phenyl]methylidene]-5-methyl-2-(phenylmethyl)-3-pyrazolone]
